From patent US11311542B2, “Inhibitors of cyclin dependent kinase 7 (CDK7)” (Syros Pharmaceuticals, Inc., priority 2018, dated 2022)
Read-outs that look alike come from different tables or passages of the source.

Key:
[1] = tested on: COV504 cells; test: Inhibition of cell proliferation (CyQUANT Direct), COV504; format: cell-based, human; conditions: COV504, 72-hour
[2] = target: CDK9/Cyclin T1 complex (Homo sapiens, UniProt P50750); test: CDK9 kinase inhibition assay (Caliper/LabChip EZ Reader)
Sequence of CDK9/Cyclin T1 complex (P50750 whole entry): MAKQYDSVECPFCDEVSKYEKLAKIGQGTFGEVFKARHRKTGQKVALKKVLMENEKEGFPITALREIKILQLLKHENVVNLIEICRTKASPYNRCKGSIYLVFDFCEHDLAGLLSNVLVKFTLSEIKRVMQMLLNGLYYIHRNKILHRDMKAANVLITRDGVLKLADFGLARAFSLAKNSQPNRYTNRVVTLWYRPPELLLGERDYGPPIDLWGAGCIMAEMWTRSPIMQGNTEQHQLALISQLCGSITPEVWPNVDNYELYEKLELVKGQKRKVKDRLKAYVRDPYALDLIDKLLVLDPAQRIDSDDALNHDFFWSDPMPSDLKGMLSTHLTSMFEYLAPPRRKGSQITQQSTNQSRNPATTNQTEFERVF
Sequence of CDK9/Cyclin T1 complex (O60563 whole entry partner): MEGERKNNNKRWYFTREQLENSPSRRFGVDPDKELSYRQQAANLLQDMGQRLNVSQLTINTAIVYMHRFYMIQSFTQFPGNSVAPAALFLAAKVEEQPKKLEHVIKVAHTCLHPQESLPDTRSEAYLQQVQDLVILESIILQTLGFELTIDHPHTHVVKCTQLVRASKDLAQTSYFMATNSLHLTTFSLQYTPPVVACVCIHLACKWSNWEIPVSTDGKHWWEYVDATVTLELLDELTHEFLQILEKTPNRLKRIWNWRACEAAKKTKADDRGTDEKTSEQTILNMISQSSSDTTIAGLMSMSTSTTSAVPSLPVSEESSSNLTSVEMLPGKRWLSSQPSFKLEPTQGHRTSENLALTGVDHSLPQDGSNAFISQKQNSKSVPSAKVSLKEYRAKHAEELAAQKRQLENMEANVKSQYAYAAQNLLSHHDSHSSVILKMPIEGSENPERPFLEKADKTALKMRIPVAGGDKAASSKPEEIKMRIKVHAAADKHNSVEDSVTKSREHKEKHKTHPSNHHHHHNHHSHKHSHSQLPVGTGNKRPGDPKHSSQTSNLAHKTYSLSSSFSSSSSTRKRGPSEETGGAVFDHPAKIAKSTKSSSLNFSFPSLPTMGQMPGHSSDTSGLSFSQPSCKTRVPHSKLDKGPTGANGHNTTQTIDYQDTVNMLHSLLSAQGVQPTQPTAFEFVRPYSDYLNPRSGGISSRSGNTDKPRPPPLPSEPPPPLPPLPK
Experimental: (§1) Compounds described herein were assayed for inhibition of CDK7, CDK9, CDK12, and CDK2 activity at Biortus Biosciences (Jiangyin, Jiangsu Province, P.R. of China) using kinase assays for each CDK developed with a Caliper/LabChip EZ Reader (Perkin Elmer, Waltham, Mass.).
(§2) Furthermore, the CDK9 inhibition assay used CDK9/Cyclin T1 complex (8 nM) and “5-FAM-CDK9tide” peptide substrate (2 μM, synthesized fluorophore-labeled peptide with the following sequence: 5-FAM-GSRTPMY-NH2 (SEQ ID NO:2) where 5-FAM is defined above and NH2 signifies a C-terminal amide) with 10 mM MgCl2 in the buffer composition listed above. The CDK12 inhibition assay used CDK12 (aa686-1082)/Cyclin K complex (50 nM) and “5-FAM-CDK9tide” (2 μM) as defined above, with 2 mM MgCl2 in the buffer composition above. Additionally, the CDK2 inhibition assay used CDK2/Cyclin E1 complex (0.5 nM) and “5-FAM-CDK7tide” (2 μM; defined above) with 2 mM MgCl2 in the buffer composition above.
(§3) The incubation period at 27° C. for each CDK inhibition assay was chosen such that the fraction of phosphorylated peptide product produced in each assay, relative to the total peptide concentration, was approximately 20% (±5%) for the uninhibited kinase (35 min. for CDK7, 35 min. for CDK2, 3 hr. for CDK12, 15 min. for CDK9).

[3] = target: CDK2/Cyclin E1 complex (Homo sapiens, UniProt P24941); test: CDK2 kinase inhibition assay (Caliper/LabChip EZ Reader)
Experimental: as §1, §2, §3

[4] = tested on: MB453 cells; test: Inhibition of cell proliferation (CyQUANT Direct), MB453; format: cell-based, human; conditions: MB453, 72-hour
[5] = tested on: COV318 cells; test: Inhibition of cell proliferation (CyQUANT Direct), COV318; format: cell-based, human; conditions: COV318, 72-hour
[6] = tested on: HCC70 cells; test: Inhibition of cell proliferation (CyQUANT Direct), HCC70; format: cell-based, human; conditions: HCC70, 72-hour
[7] = target: CDK12 (aa686-1082)/Cyclin K complex (Homo sapiens, UniProt Q9NYV4); test: CDK12 kinase inhibition assay (Caliper/LabChip EZ Reader)
Sequence of CDK12 (aa686-1082)/Cyclin K complex (Q9NYV4 686-1082): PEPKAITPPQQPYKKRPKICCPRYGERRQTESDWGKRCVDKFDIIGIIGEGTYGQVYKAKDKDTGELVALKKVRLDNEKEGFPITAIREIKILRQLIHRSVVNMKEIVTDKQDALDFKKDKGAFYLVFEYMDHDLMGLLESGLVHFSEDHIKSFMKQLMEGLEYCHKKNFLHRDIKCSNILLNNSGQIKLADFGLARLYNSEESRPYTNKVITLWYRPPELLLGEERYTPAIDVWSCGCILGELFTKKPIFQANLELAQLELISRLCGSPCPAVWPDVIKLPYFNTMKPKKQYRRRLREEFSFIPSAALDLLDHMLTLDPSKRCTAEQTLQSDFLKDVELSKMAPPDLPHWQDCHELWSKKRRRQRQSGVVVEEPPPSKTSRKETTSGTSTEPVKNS
Sequence of CDK12 (aa686-1082)/Cyclin K complex (O75909 whole entry partner, the tested form may be a part): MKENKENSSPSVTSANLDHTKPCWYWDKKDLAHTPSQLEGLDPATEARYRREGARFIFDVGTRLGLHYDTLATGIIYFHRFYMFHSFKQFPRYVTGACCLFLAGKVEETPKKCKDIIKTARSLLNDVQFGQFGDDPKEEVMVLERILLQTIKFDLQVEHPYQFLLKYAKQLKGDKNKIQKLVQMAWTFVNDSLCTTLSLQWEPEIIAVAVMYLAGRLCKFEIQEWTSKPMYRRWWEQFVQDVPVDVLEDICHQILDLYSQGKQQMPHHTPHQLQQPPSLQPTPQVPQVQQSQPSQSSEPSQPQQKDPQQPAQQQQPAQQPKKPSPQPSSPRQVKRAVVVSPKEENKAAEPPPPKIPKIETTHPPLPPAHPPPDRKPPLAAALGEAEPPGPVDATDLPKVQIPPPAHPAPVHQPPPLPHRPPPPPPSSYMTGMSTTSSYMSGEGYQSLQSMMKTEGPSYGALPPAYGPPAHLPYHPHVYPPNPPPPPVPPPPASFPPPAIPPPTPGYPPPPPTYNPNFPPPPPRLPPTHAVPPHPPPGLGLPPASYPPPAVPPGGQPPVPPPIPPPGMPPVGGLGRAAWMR

[8] = target: CDK7/Cyclin H/MAT1 complex (Homo sapiens, UniProt P50613); test: CDK7 kinase inhibition assay (Caliper/LabChip EZ Reader)
Sequence of CDK7/Cyclin H/MAT1 complex (P50613 whole entry): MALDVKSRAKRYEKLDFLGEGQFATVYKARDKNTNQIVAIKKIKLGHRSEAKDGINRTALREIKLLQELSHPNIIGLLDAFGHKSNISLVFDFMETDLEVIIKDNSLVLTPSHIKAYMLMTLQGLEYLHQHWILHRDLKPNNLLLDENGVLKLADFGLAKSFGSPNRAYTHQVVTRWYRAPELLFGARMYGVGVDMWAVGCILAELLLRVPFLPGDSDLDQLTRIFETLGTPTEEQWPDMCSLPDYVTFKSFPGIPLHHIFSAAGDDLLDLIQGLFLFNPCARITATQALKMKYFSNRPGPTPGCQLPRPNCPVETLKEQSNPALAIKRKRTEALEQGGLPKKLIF
Sequence of CDK7/Cyclin H/MAT1 complex (P51946 whole entry partner): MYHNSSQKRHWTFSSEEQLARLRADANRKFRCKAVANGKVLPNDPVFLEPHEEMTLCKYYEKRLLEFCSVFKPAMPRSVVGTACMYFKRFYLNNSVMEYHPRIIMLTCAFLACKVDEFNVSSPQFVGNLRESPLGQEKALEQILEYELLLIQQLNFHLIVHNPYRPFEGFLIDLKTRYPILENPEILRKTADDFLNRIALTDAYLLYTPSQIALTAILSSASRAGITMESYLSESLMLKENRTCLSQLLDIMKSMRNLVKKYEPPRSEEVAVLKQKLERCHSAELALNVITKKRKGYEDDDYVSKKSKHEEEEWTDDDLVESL
Sequence of CDK7/Cyclin H/MAT1 complex (P51948 whole entry partner): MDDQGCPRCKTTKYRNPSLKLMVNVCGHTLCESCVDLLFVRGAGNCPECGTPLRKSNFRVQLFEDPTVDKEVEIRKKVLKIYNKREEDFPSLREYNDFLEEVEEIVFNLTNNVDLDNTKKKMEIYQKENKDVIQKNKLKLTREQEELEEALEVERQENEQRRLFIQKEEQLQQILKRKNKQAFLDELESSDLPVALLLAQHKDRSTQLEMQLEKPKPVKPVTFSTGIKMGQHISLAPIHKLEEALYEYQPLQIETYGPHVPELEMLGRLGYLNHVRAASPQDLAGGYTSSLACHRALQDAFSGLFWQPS
Experimental: as §1, §2, §3

Row | Molecule | IC50 ([1]; Homo sapiens) [nM] | IC50 [2] [nM] | IC50 [3] [nM] | IC50 ([4]; Homo sapiens) [nM] | IC50 ([5]; Homo sapiens) [nM] | IC50 ([6]; Homo sapiens) [nM] | IC50 [7] [nM] | IC50 [8] [nM] | IC50 [1] [nM] | IC50 ([2]; read-out: CDK9 IC50, CDK9/Cyclin T1 8 nM, ATP 2 mM, 15 min at 27° C.) [nM] | IC50 ([3]; read-out: CDK2 IC50, CDK2/Cyclin E1 0.5 nM, ATP 2 mM, 35 min at 27° C.) [nM] | IC50 [4] [nM] | IC50 [5] [nM] | IC50 [6] [nM] | IC50 ([7]; read-out: CDK12 IC50, CDK12 (aa686-1082)/Cyclin K 50 nM, ATP 2 mM, 3 hr at 27° C.) [nM] | IC50 ([8]; read-out: CDK7 IC50, CDK7/Cyclin H/MAT1 6 nM, ATP 2 mM, 35 min at 27° C.) [nM]
1 | Cn1nnnc1-c1ccc2c(-c3nc(N[C@H]4CCCNC4)ncc3C(F)(F)F)c[nH]c2c1 [Compound 122, 4-[6-(1-methyltetrazol-5-yl)-1Hindol-3-yl]-N-[(3S)-3-piperidyl]-5-(trifluoromethyl)pyrimidin-2-amine] | < 100 | > 500 | > 500 | < 100 | > 1000 | 100 to 500 | > 500 | < 30 | – | – | – | – | – | – | – | –
2 | Cc1nnc(-c2ccc3c(-c4nc(N[C@H]5CCCNC5)ncc4C(F)(F)F)c[nH]c3n2)s1 [Compound 155, 4-[6-(5-methyl-1,3,4-thiadiazol-2-yl)-1H-pyrrolo[2,3-b]pyridin-3-yl]-N-[(3S)-3-piperidyl]-5-(trifluoromethyl)pyrimidin-2-amine] | < 100 | > 500 | > 500 | < 100 | < 100 | < 100 | > 500 | < 30 | – | – | – | – | – | – | – | –
3 | (3S,4S)-tert-butyl 3-((4-(6-(3,5-dimethylisoxazol-4-yl)-1H-indol-3-yl)-5-(trifluoromethyl)pyrimidin-2-yl)amino)-4-methylpiperidine-1-carboxylate [Compound 135] | – | – | – | – | – | – | – | – | < 100 | > 500 | > 500 | < 100 | > 1000 | 100 to 500 | > 500 | 30 to 100
4 | CO[C@H]1CNC[C@@H](Nc2ncc(C(F)(F)F)c(-c3c[nH]c4cc(-c5c(C)noc5C)ccc34)n2)C1 [Compound 131] | < 100 | > 500 | > 500 | < 100 | 100 to 500 | 100 to 500 | > 500 | < 30 | – | – | – | – | – | – | – | –
5 | Cc1nsc(-c2ccc3c(-c4nc(N[C@@H]5CC[C@@H](C)NC5)ncc4C(F)(F)F)c[nH]c3n2)n1 [Compound 159, N-[(3R,6R)-6-methyl-3-piperidyl]-4-[6-(3-methyl-1,2,4-thiadiazol-5-yl)-1H-pyrrolo[2,3-b]pyridin-3-yl]-5-(trifluoromethyl)pyrimidin-2-amine] | < 100 | > 500 | > 500 | < 100 | > 1000 | < 100 | > 500 | < 30 | – | – | – | – | – | – | – | –
6 | Cc1nc(-c2ccc3c(-c4nc(N[C@H]5CC[C@H](C)NC5)ncc4C(F)(F)F)c[nH]c3n2)no1 [Compound 162, 4-[6-(5-methyl-1,2,4-oxadiazol-3-yl)-1H-pyrrolo[2,3-b]pyridin-3-yl]-N-[(3S,6S)-6-methyl-3-piperidyl]-5-(trifluoromethyl)pyrimidin-2-amine] | < 100 | > 500 | > 500 | 500 to 1000 | > 1000 | 100 to 500 | > 500 | < 30 | – | – | – | – | – | – | – | –
7 | Cc1noc(C)c1-c1cc2[nH]cc(-c3nc(N[C@H]4CCCNC4)ncc3C(F)(F)F)c2cc1F [Compound 134, 4-(6-(3,5-dimethylisoxazol-4-yl)-5-fluoro-1H-indol-3-yl)-N—((S)-piperidin-3-yl)-5-(trifluoromethyl)pyrimidin-2-amine] | < 100 | > 500 | > 500 | < 100 | < 100 | < 100 | > 500 | < 30 | – | – | – | – | – | – | – | –
8 | Cc1nocc1-c1ccc2c(-c3nc(N[C@H]4CCCNC4)ncc3C(F)(F)F)c[nH]c2c1 [Compound 114, (S)-4-(6-(3-methylisoxazol-4-yl)-1H-indol-3-yl)-N-(piperidin-3-yl)-5-(trifluoromethyl)pyrimidin-2-amine] | < 100 | > 500 | > 500 | < 100 | < 100 | < 100 | > 500 | < 30 | – | – | – | – | – | – | – | –
9 | Cc1noc(C)c1-c1ccc2c(-c3nc(N[C@@H]4CC[C@@H](C)NC4)ncc3C(F)(F)F)n[nH]c2n1 [Compound 153, 4-[6-(3,5-dimethylisoxazol-4-yl)-1H-pyrazolo[3,4-b]pyridin-3-yl]-N-[(3R,6R)-6-methyl-3-piperidyl]-5-(trifluoromethyl)pyrimidin-2-amine] | < 100 | > 500 | > 500 | < 100 | < 100 | < 100 | > 500 | < 30 | – | – | – | – | – | – | – | –
10 | Cc1nsc(-c2ccc3c(-c4nc(N[C@H]5CCCNC5)ncc4C(F)(F)F)c[nH]c3c2)n1 [Compound 130] | 100 to 500 | > 500 | > 500 | 100 to 500 | 100 to 500 | 100 to 500 | > 500 | < 30 | – | – | – | – | – | – | – | –
11 | Cc1nc(-c2ccc3c(-c4nc(N[C@H]5CCCNC5)ncc4C(F)(F)F)c[nH]c3c2)no1 [Compound 129, 4-[6-(5-methyl-1,2,4-oxadiazol-3-yl)-1H-indol-3-yl]-N-[(3S)-3-piperidyl]-5-(trifluoromethyl)pyrimidin-2-amine] | < 100 | > 500 | > 500 | < 100 | < 100 | < 100 | > 500 | < 30 | – | – | – | – | – | – | – | –
12 | CC1(C)CNC[C@@H](Nc2ncc(C(F)(F)F)c(-c3c[nH]c4nc(-c5nccs5)ccc34)n2)C1 [Compound 137, N-[(3S)-5,5-dimethyl-3-piperidyl]-4-(6-thiazol-2-yl-1H-pyrrolo[2,3-b]pyridin-3-yl)-5-(trifluoromethyl)pyrimidin-2-amine] | < 100 | > 500 | > 500 | < 100 | < 100 | < 100 | > 500 | < 30 | – | – | – | – | – | – | – | –
